Assay type in all cases: biochemical
Series [1] concerns the target T1, membrane-bound rMpAOX (Moniliophthora perniciosa, UniProt A8QJP8). Kind of series: Dose-response assay of inhibitors with membrane-bound, GMP-activated rMpAOX (NADH oxidation). Here is the method: (§1) E. coli membrane preparation was performed as described with minor modifications. […] The cells were disrupted using two passes at […] through a pre-cooled Constant cell disruption system (Constant Systems Ltd). The lysate was centrifuged for 15 min at 16,000 rcf, and the pelleted unbroken cells and large cell debris were discarded. The supernatant was centrifuged for 90 min at 200,000 rcf to collect the fragmented membranes.
(§2) Respiration rates were recorded before and after the addition of putative AOX activators, such as 5′-ADP, 5′-AMP, 5′-GDP, 5′-GMP, glyoxylate, oxaloacetate, pyruvate or succinate (1 mM each unless stated otherwise). […] Data were acquired with the Multiskan FC Microplate Photometer (ThermoFisher). […] Absorbance readings were taken periodically and a blank reactions (substrate without enzyme) were included in every assay and were used to determine and subtract the autoxidation rate (background). Proteoliposomes were assayed as described for the E. coli membrane fraction except that no KCN was included and 0.5 µL of the prep (~50 ng rMpAOX) were added into the reaction. When tested, inhibitors were preincubated with the enzyme in reaction buffer for 2–5 min before starting the reaction by the addition of substrate. The path length (i.e., the height of the reaction medium inside the well) was calculated based on the reaction volume and the well cross-section area informed by the supplier. GraphPad Prism 7.0 (GraphPad Software Inc.) was used for function fitting.

For series [2], the target named is T1, membrane-bound rMpAOX. Kind of series: Membrane-bound rMpAOX activity with putative activators (O2 uptake, oxygraph; dose-response). Conditions: single independent measurements (Fig1a); for Fold-change in membrane-bound rMpAOX O2 uptake: 1 mM each; for fold induction at 1000 µM: pH 7.5, 1 mM each, read-out: Fold-change in membrane-bound rMpAOX O2 uptake. Here is the method:
as §1, §2

The target of the next series is purified rMpAOX (Moniliophthora perniciosa, UniProt A8QJP8). Kind of series: Purified (detergent-solubilised) rMpAOX, Q1H2 oxidation. To be noted: for Activity: [Q1H2]. Here is the method: The E. coli membrane fraction was resuspended with 50 mM Tris-HCl pH 7.5, 20% glycerol, 200 mM MgSO4 and 1% Fos-Choline-12 (FC-12) instead of MOPS buffer. The sample was left under gentle rocking for 1 h at 4 °C, after which it was centrifuged at 200,000 rcf for 30 min. […] T. Elthon, Nebraska, USA. Protein content was estimated through the Bradford method[63] and bovine serum albumin as standard.
purified rMpAOX, sequence (A8QJP8 entry or part of it): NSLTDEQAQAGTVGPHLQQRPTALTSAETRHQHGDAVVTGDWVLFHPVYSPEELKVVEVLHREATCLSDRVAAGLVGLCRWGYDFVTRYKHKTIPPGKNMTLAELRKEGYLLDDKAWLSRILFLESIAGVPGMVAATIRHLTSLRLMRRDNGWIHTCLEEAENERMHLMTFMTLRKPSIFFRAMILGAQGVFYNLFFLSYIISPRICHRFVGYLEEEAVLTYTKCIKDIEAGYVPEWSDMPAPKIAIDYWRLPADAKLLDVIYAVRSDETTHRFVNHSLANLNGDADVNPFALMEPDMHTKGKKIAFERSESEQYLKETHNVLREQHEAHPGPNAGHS
as §2

Setting [3] is: log[I], M -4.60206 (Fig2b), 25 µM.
Setting [4] is: log[I], M -5.60206 (Fig2b), 2.5 µM.
[5] abbreviates: log[I], M -6.60206 (Fig2b), 0.25 µM.
Where [6] appears, read: log[I], M -7.60206 (Fig2b), 0.025 µM.
[7] abbreviates: log[I], M -8.60206 (Fig2b), 0.0025 µM.
[8] abbreviates: log[I], M -9.60206 (Fig2b), 0.00025 µM.
Where [9] appears, read: log[I], M -10.6021 (Fig2b), 25 pM.
The mark [10] stands for this setting: substrate ubiquinol-1, 0.0125% C12E8, 100 ng rMpAOX.

The structures appear in SMILES notation. Values joined by “and” are separate entries in the source; they are usually repeats but may differ in a detail not shown here. Equal values may be shown once. Read-outs that look alike come from different tables or passages of the source.

What is called IC50 is the concentration that gives 50% inhibition. The term Km denotes the substrate concentration at which the rate is half of its maximum.

T1 sequence (A8QJP8 entry or part of it): as above

With `CCCCCCCCOC(=O)c1cc(O)c(O)c(O)c1` [OG, octyl gallate], the “Fractional velocity, %” value is 3.004% and 2.353% and 7.7435% on membrane-bound rMpAOX [1] (setting [3]); 37.6641% and 53.0018% and 32.2387% at membrane-bound rMpAOX [1] (setting [4]); 91.8565% and 76.0465% at membrane-bound rMpAOX [1] (setting [5]); 96.9123% and 87.3681% at membrane-bound rMpAOX [1] (setting [6]); 100.043% and 88.594% at membrane-bound rMpAOX [1] (setting [7]); 96.5387% and 94.2199% at membrane-bound rMpAOX [1] (setting [8]). Further, the “Fractional velocity, %” value on membrane-bound rMpAOX [1] (setting [9]) is 93.2034% and 90.1921%. Besides, the activity at 0.25 µM on membrane-bound rMpAOX [1] (log[I], M -6.60206 (Fig2b), read-out: Fractional velocity, %) worked out at 92.7%. For the same compound, the activity at 0.025 µM at membrane-bound rMpAOX [1] (log[I], M -7.60206 (Fig2b), read-out: Fractional velocity, %) amounted to 99%. The activity at 0.0025 µM at membrane-bound rMpAOX [1] (log[I], M -8.60206 (Fig2b), read-out: Fractional velocity, %) came out at 98.8%. Also, the activity at 0.00025 µM on membrane-bound rMpAOX [1] (log[I], M -9.60206 (Fig2b), read-out: Fractional velocity, %) came out at 98%. Also, the activity at 25 pM on membrane-bound rMpAOX [1] (log[I], M -10.6021 (Fig2b), read-out: Fractional velocity, %) stood at 93.9%. In addition, the IC50 at membrane-bound rMpAOX [1] (membrane-bound, GMP-activated rMpAOX, read-out: IC50) came out at 1670 nM.

Consider `O=C(O)CC(=O)C(=O)O` [OXAL, oxaloacetate], for which, at membrane-bound rMpAOX [2] (1000 µM), the “Fold-change in membrane-bound rMpAOX O2 uptake” value is 0.932 and 1.186. For the same compound, the fold induction at 1000 µM at membrane-bound rMpAOX [2] was determined as 0.847.

Turning to `CC(=O)C(=O)O` [PYR, pyruvate], the “Fold-change in membrane-bound rMpAOX O2 uptake” value at membrane-bound rMpAOX [2] (1000 µM) was 0.7655 and 0.9453. Further, the fold induction at 1000 µM on membrane-bound rMpAOX [2] stood at 0.681.

In turn, `COc1c(O)c(C)c(CC=C(C)C)c(O)c1OC` [Q1H2, ubiquinol-1] gave an Oxidation rate on purified rMpAOX (180 µM Q1H2) of 0.36 µmol/min/mg. Also, the Activity is 25.2546 nmol/min/mg at purified rMpAOX (M 4.29 (Fig3c, mean)); 30.5181 nmol/min/mg on purified rMpAOX (M 6.87 (Fig3c, mean)); 60.7997 nmol/min/mg at purified rMpAOX (M 10.99 (Fig3c, mean)); 87.5414 nmol/min/mg on purified rMpAOX (M 17.58 (Fig3c, mean)); 145.463 nmol/min/mg at purified rMpAOX (M 28.12 (Fig3c, mean)); 202.371 nmol/min/mg at purified rMpAOX (M 45 (Fig3c, mean)). In addition, the Activity at purified rMpAOX (M 71.99 (Fig3c, mean)) stood at 274.627 nmol/min/mg; on purified rMpAOX (M 115.19 (Fig3c, mean)) it was 327.356 nmol/min/mg; on purified rMpAOX (M 184.3 (Fig3c, mean)) it was 355.622 nmol/min/mg. Moreover, the Km on purified rMpAOX (setting [10]) came to 68.5 µM. Further, the VMax at purified rMpAOX (setting [10]) was 504.1 nmol Q1 min^−1 mg^−1 and 504.1 ± 28.7 nmol Q1 min^−1 mg^−1.

With `O=C(NO)c1ccccc1O` [SHAM, salicylhydroxamic acid], the “Fractional velocity, %” value was 95.8272% and 90.1105% on membrane-bound rMpAOX [1] (setting [3]); 96.6342% and 84.7725% on membrane-bound rMpAOX [1] (setting [4]); 99.0344% and 87.1837% at membrane-bound rMpAOX [1] (setting [5]); 97.5117% and 94.5942% at membrane-bound rMpAOX [1] (setting [6]); 99.3055% and 95.1323% at membrane-bound rMpAOX [1] (setting [7]); 99.8162% and 99.1897% on membrane-bound rMpAOX [1] (setting [8]). Besides, on membrane-bound rMpAOX [1] (setting [9]), the “Fractional velocity, %” value was 99.1867% and 91.0587%. For the same compound, the activity at 25 µM on membrane-bound rMpAOX [1] (read-out: Fractional velocity, %, log[I], M -4.60206 (Fig2b)) stood at 96.4%. In addition, the activity at 2.5 µM at membrane-bound rMpAOX [1] (read-out: Fractional velocity, %, log[I], M -5.60206 (Fig2b)) is 98%. In addition, on membrane-bound rMpAOX [1] (read-out: Fractional velocity, %, log[I], M -6.60206 (Fig2b)), the activity at 0.25 µM was 96.1%. Further, the activity at 0.025 µM on membrane-bound rMpAOX [1] (read-out: Fractional velocity, %, log[I], M -7.60206 (Fig2b)) turned out to be 95.6%. Besides, the activity at 0.0025 µM on membrane-bound rMpAOX [1] (read-out: Fractional velocity, %, log[I], M -8.60206 (Fig2b)) was found to be 94.9%. Also, the activity at 0.00025 µM on membrane-bound rMpAOX [1] (read-out: Fractional velocity, %, log[I], M -9.60206 (Fig2b)) turned out to be 93.7%. Further, the activity at 25 pM on membrane-bound rMpAOX [1] (read-out: Fractional velocity, %, log[I], M -10.6021 (Fig2b)) came to 88.7%. Besides, the “Effect on membrane-bound rMpAOX” value at membrane-bound rMpAOX [1] (up to the maximal tested concentration of 25 µM) is listed as “did not exert any effect”.

As to `O=C(O)CCC(=O)O` [SUCC, succinate], the “Fold-change in membrane-bound rMpAOX O2 uptake” value at membrane-bound rMpAOX [2] is 1.198 and 0.7995 and 1.017.

Source of the values: publication PMC7248098, “Biochemical characterization and inhibition of the alternative oxidase enzyme from the fungal phytopathogen Moniliophthora perniciosa” (Communications Biology, 2020).
